As a reminder, the EC50 is the concentration that produces a half-maximal response. Read a high EC50 as a less potent agent.

The assay deals with T1, rat CB2 receptor (rCB2) (Rattus norvegicus, UniProt Q9QZN9).
T1 sequence (Q9QZN9 1-360): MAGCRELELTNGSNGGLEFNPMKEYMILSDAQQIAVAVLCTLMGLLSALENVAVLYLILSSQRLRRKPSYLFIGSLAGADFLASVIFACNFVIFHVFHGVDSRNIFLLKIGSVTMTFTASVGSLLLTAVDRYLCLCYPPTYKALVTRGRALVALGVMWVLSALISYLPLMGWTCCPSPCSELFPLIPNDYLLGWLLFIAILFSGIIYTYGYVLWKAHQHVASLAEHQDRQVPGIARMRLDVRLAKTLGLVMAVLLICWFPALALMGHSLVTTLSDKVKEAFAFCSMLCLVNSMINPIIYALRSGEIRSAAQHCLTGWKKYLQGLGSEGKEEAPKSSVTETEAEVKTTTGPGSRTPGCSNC
For `CNC(=O)[C@@H](NC(=O)c1nc(-c2ccccc2)n2c1CN(c1cccc(Cl)n1)CC2)C(C)(C)C` [Compound 299, (S)-7-(6-chloropyridin-2-yl)-N-(3,3-dimethyl-1-(methylamino)-1-oxobutan-2-yl)-3-phenyl-5,6,7,8-tetrahydroimidazo[1,5-a]pyrazine-1-carboxamide], the EC50 is 10 to 100 nM. `CNC(=O)[C@@H](NC(=O)c1nc(-c2cc(Cl)ccc2F)n2c1CN(C)CC2)C(C)(C)C` [Compound 246, (S)-3-(5-chloro-2-fluorophenyl)-N-(3,3-dimethyl-1-(methylamino)-1-oxobutan-2-yl)-7-methyl-5,6,7,8-tetrahydroimidazo[1,5-a]pyrazine-1-carboxamide] showed an EC50 of 10 to 100 nM. Under `COC(=O)[C@@H](NC(=O)c1nc(-c2ccc(C)cc2F)n2c1CN(CC1CC1)CCC2)C(C)(C)C` [Compound 470, (S)-methyl 2-(8-(cyclopropylmethyl)-3-(2-fluoro-4-methylphenyl)-6,7,8,9-tetrahydro-5H-imidazo[1,5-a][1,4]diazepine-1-carboxamido)-3,3-dimethylbutanoate] stands 10 to 100 nM; under `CNC(=O)[C@@H](NC(=O)c1nc(CCCC2CCCC2)n2c1CN(C)CCC2)C(C)(C)C` [Compound 494, (S)-3-(3-cyclopentylpropyl)-N-(3,3-dimethyl-1-(methylamino)-1-oxobutan-2-yl)-8-methyl-6,7,8,9-tetrahydro-5H-imidazo[1,5-a][1,4]diazepine-1-carboxamide], 10 to 100 nM; under `CNC(=O)[C@@H](NC(=O)c1nc(-c2ccc(Cl)cc2F)n2c1CN(C(=O)OC(C)(C)C)CCC2)C(C)(C)C` [Compound 313], 10 to 100 nM.

The compound `Cc1noc([C@@H](NC(=O)c2nc(-c3ccccc3)n3c2CN(C(C)C)CC3)C(C)(C)C)n1` [Compound 89, (S)-N-(2,2-dimethyl-1-(3-methyl-1,2,4-oxadiazol-5-yl)propyl)-7-isopropyl-3-phenyl-5,6,7,8-tetrahydrimidazo[1,5-a]pyrazine-1-carboxamide] showed an EC50 of 0.1 to 10 nM. Under `Cc1ccc(-c2nc(C(=O)N[C@H](c3nc(C)no3)C(C)(C)C)c3n2CCCNC3)c(F)c1` [Compound 520, (S)-N-(2,2-dimethyl-1-(3-methyl-1,2,4-oxadiazol-5-yl)propyl)-3-(2-fluoro-4-methylphenyl)-6,7,8,9-tetrahydro-5H-imidazo[1,5-a][1,4]diazepine-1-carboxamide] stands 10 to 100 nM; under `CNC(=O)[C@@H](NC(=O)c1nc(-c2ccc3ccccc3c2)n2c1CN(C)CCC2)C(C)(C)C` [Compound 380, (S)-N-(3,3-dimethyl-1-(methylamino)-1-oxobutan-2-yl)-8-methyl-3-(naphthalen-2-yl)-6,7,8,9-tetrahydro-5H-imidazo[1,5-a][1,4]diazepine-1-carboxamide], 10 to 100 nM.

In turn, `CNC(=O)[C@@H](NC(=O)c1nc(-c2ccccc2)n2c1CN(S(=O)(=O)c1ccccc1[N+](=O)[O-])CC2)C(C)(C)C` [Compound 97, (S)-N-(3,3-dimethyl-1-(methylamino)-1-oxobutan-2-yl)-7-(2-nitrophenylsulfonyl)-3-phenyl-5,6,7,8-tetrahydroimidazo[1,5-a]pyrazine-1-carboxamide] returned a 50% effective concentration (EC50) of 10 to 100 nM. Under `CNC(=O)[C@@H](NC(=O)c1nc(-c2cccc(C(F)(F)F)c2)n2c1CN(C)CCC2)C(C)(C)C` [Compound 438, (S)-N-(3,3-dimethyl-1-(methylamino)-1-oxobutan-2-yl)-8-methyl-3-(3-(trifluoromethyl)phenyl)-6,7,8,9-tetrahydro-5H-imidazo[1,5-a][1,4]diazepine-1-carboxamide] stands 10 to 100 nM; under `CNC(=O)[C@@H](NC(=O)c1nc(-c2ccccc2)n2c1CN(S(=O)(=O)C1CC1)CC2)C(C)(C)C` [Compound 100, (S)-7-(cyclopropylsulfonyl)-N-(3,3-dimethyl-1-(methylamino)-1-oxobutan-2-yl)-3-phenyl-5,6,7,8-tetrahydroimidazo[1,5-a]pyrazine-1-carboxamide], 10 to 100 nM; under `CNC(=O)[C@@H](NC(=O)c1nc(-c2ccc(C(F)(F)F)cc2)n2c1CNCC2)C(C)(C)C` [Compound 5, (S)-N-(3,3-dimethyl-1-(methylamino)-1-oxobutan-2-yl)-3-(4-(trifluoromethyl)phenyl)-5,6,7,8-tetrahydroimidazo[1,5-a]pyrazin-1-carboxamide], 10 to 100 nM. Turning to `CNC(=O)[C@@H](NC(=O)c1nc(-c2ccccc2)n2c1CN(S(=O)(=O)c1ccc(Cl)cc1)CC2)C(C)(C)C` [Compound 106, (S)-7-(4-chlorophenylsulfonyl)-N-(3,3-dimethyl-1-(methylamino)-1-oxobutan-2-yl)-3-phenyl-5,6,7,8-tetrahydroimidazo[1,5-a]pyrazine-1-carboxamide], the EC50 is 10 to 100 nM.

Compound `CCN1CCn2c(-c3ccc(Cl)cc3)nc(C(=O)NCCC(C)C)c2C1` [Compound 158, 3-(4-chlorophenyl)-7-ethyl-N-isopentyl-5,6,7,8-tetrahydroimidazo[1,5-a]pyrazine-1-carboxamide] gave an EC50 of 10 to 100 nM.

Consider `CNC(=O)[C@@H](NC(=O)c1nc(-c2ccccc2)n2c1CN(S(=O)(=O)c1ccc(C(F)(F)F)cc1)CC2)C(C)(C)C` [Compound 107, (S)-N-(3,3-dimethyl-1-(methylamino)-1-oxobutan-2-yl)-3-phenyl-7-(4-(trifluoromethyl)phenylsulfonyl)-5,6,7,8-tetrahydroimidazo[1,5-a]pyrazine-1-carboxamide], for which the EC50 is 10 to 100 nM. The compound `CC(C)(C)c1noc([C@@H](NC(=O)c2nc(-c3ccccc3)n3c2CN(C2CC2)CC3)C(C)(C)C)n1` [Compound 284, (S)-N-(1-(3-tert-butyl-1,2,4-oxadiazol-5-yl)-2,2-dimethylpropyl)-7-cyclopropyl-3-phenyl-5,6,7,8-tetrahydroimidazo[1,5-a]pyrazine-1-carboxamide] came in with an EC50 of 0.1 to 10 nM.

`CC(C)(C)OC(=O)N1CCn2c(-c3ccc(Cl)cc3)nc(C(=O)N[C@H](CO)C(C)(C)C)c2C1` (stereo in doubt) [Compound 34, tert-butyl 3-(4-chlorophenyl)-1-(1-hydroxy-3,3-dimethylbutan-2-ylcarbamoyl)-5,6-dihydroimidazo[1,5-a]pyrazine-7(8H)-carboxylate] came in with an EC50 of 10 to 100 nM.

In turn, `CCN1CCn2c(-c3ccc(Cl)cc3)nc(C(=O)N[C@H](CO)C(C)(C)C)c2C1` [Compound 161, (S)-3-(4-chlorophenyl)-7-ethyl-N-(1-hydroxy-3,3-dimethylbutan-2-yl)-5,6,7,8-tetrahydroimidazo[1,5-a]pyrazine-1-carboxamide] had an EC50 of 10 to 100 nM.

In the case of `CNC(=O)[C@@H](NC(=O)c1nc(-c2ccccc2)n2c1CN(CCC(C)(C)C)CC2)C(C)(C)C` [Compound 54, (S)-N-(3,3-dimethyl-1-(methylamino)-1-oxobutan-2-yl)-7-(3,3-dimethylbutyl)-3-phenyl-5,6,7,8-tetrahydroimidazo[1,5-a]pyrazine-1-carboxamide], the EC50 fell in the range of 10 to 100 nM. For `CNC(=O)[C@@H](NC(=O)c1nc(-c2ccccc2)n2c1CN(S(=O)(=O)C(C)C)CC2)C(C)(C)C` [Compound 94, (S)-N-(3,3-dimethyl-1-(methylamino)-1-oxobutan-2-yl)-7-(isopropylsulfonyl)-3-phenyl-5,6,7,8-tetrahydrimidazo[1,5-a]pyrazine-1-carboxamide], the EC50 was in the range of 10 to 100 nM. In turn, `CNC(=O)[C@H](CC(C)C)NC(=O)c1nc(-c2ccc(Cl)cc2F)n2c1CN(C)CC2` [Compound 276, (S)-3-(4-chloro-2-fluorophenyl)-7-methyl-N-(4-methyl-1-(methylamino)-1-oxopentan-2-yl)-5,6,7,8-tetrahydroimidazo[1,5-a]pyrazine-1-carboxamide] yielded an EC50 of 10 to 100 nM. Under `Cc1ccc(-c2nc(C(=O)N[C@H](c3nc(C)no3)C(C)(C)C)c3n2CCCN(C(C)C)C3)c(F)c1` [Compound 523, (S)-N-(2,2-dimethyl-1-(3-methyl-1,2,4-oxadiazol-5-yl)propyl)-3-(2-fluoro-4-methylphenyl)-8-isopropyl-6,7,8,9-tetrahydro-5H-imidazo[1,5-a][1,4]diazepine-1-carboxamide] stands 10 to 100 nM.

For the compound `CNC(=O)[C@@H](NC(=O)c1nc(-c2ccccc2)n2c1CN(S(=O)(=O)c1ccc(F)cc1)CC2)C(C)(C)C` [Compound 93, (S)-N-(3,3-dimthyl-1-(methylamino)-1-oxobutan-2-yl)-7-(4-fluorophenylsulfonyl)-3-phenyl-5,6,7,8-tetrahydroimidazo[1,5-a]pyrazine-1-carboxamide], the EC50 was 10 to 100 nM. The compound `CC(C)CCNC(=O)c1nc(-c2ccc(Cl)cc2)n2c1CN(CC(C)C)CC2` [Compound 157, 3-(4-chlorophenyl)-7-isobutyl-N-isopentyl-5,6,7,8-tetrahydroimidazo[1,5-a]pyrazine-1-carboxamide] gave an EC50 of 10 to 100 nM.

As for `CCc1nc(C(=O)N[C@H](C(=O)NC)C(C)(C)C)c2n1CCN(C)C2` [Compound 310, (S)-N-(3,3-dimethyl-1-(methylamino)-1-oxobutan-2-yl)-3-ethyl-7-methyl-5,6,7,8-tetrahydroimidazo[1,5-a]pyrazine-1-carboxamide], the EC50 was in the range of 10 to 100 nM. Under `CC(C)CN1CCn2c(-c3ccccc3)nc(C(=O)N[C@H](C(=O)N(C)C)C(C)(C)C)c2C1` [Compound 80, (S)-N-(1-(dimethylamino)-3,3-dimethyl-1-oxobutan-2-yl)-7-isobutyl-3-phenyl-5,6,7,8-tetrahydroimidazo[1,5-a]pyrazine-1-carboxamide] stands 10 to 100 nM; under `C[C@@H](NC(=O)c1nc(-c2ccccc2)n2c1CN(C(=O)C(C)(C)C)CC2)C1CCCCC1` [Compound 133, (R)-N-(1-cyclohexylethyl)-3-phenyl-7-pivaloyl-5,6,7,8-tetrahydroimidazo[1,5-a]pyrazine-1-carboxamide], 10 to 100 nM.

For the origin of these results see patent publication US8431565B2 (priority 2007, dated 2013).
